Like-named read-outs stand apart in the source and are kept apart here. Marks after values point to notes of the source that are not given here.
Experiments:
glomerulonephritic rats = experiment: Antiproteinuric action in glomerulonephritic rats; type: in vivo, rat; settings: urinary excretion; 100 mg/kg p.o. once a day for 4 weeks
Method: Glomerulonephritis in rats was prepared according to the method by Nagamatsu et al. (Folia Pharmacol. Jpn. 78, 491, 1981). The mixture of 3 mg rabbit serum albumin (RSA) and the same amount of complete Freund's adjuvant was prepared. One ml/rat (3 mg/rat) of the mixture was first injected subcutaneously to 5 weeks old Spraque Dawley (Jcl) rats. 2 weeks later, RSA (1 mg/rat) was injected intravenously 3 times a week for 8 weeks. At the point of RSA injection for the first 4 weeks, urine was collected from the rat for 24 hours to measure urinary excretion of albumin and total protein. According to the value of albumin and total protein obtained, the rats were separated into 2 groups of the control and the treatment group. Then, the drug or vehicle was orally given once a day for 4 weeks and the 24 hour-urine at the 4 week of the dosage was collected for measurement of urinary albumin and total protein.

endothelin [1] = experiment: Protective effects against endothelin-induced death in mice; type: in vivo; settings: mouse, survival 1 h after endothelin
Method: (§1) Male SD-Jcl rats (5-6 weeks old) and male Jcl-ICR mice (5-6 weeks 01 d) were used without anesthetization.
(§2) Physiological saline or drug-dissolved physiological saline was given via the tail vein to a rat in a volume of 1 ml/kg and to a mouse in a volume of 5 ml/kg. Five minutes later, the same volume of endothelin (Peptide Institute; 5 nmol/kg)-dissolved physiological saline was intravenously given.
(§3) In the case of oral administration of a drug, the drug was given in 10 ml/kg of 5% gum arabic suspension one hour before the administration of endothelin.
(§4) One hour after the administration of endothelin, the survival rates were measured, and the effect of the drug was evaluated.

[2] = system: cultured rat vascular smooth muscle cells; experiment: Inhibition of endothelin-induced elevation of cytosolic calcium concentration (fura-2 fluorescence); type: cell-based; settings: endothelin 4 x 10-^9 M, read-out: Inhibitory activity (%); for inhibition at 0.4 µM: compound 4 x 10^-7 M; for inhibition at 0.04 µM: compound 4 x 10^-8 M; for inhibition at 4 µM: compound 4 x 10^-6 M
Method: A glass cover slide coated with 4 µM fura-2-loaded cultured rat vascular smooth muscle cells was inserted into a quartz cuvette which contained 2.5 ml HEPES buffer (pH 7.2). On this occasion, the glass cover slide was fixed on a diagonal of 45° to the direction of excitation light. The fluoroscence was measured in a Hitachi F-4000 spectrofluorimeter. Wavelengths were set at 340 nm and 380 nm for excitation and 505 nm for emission. Fmax and Fmin were estimated after addition of ionomycin (2 µM; Calbiochem) as calcium ionophore and EGTA (8 mM) as calcium ion-chelator, respectively. The cytosolic calcium ion concentration [Ca^++]i values were calculated by Tsien et al. formula: [Ca^++]-i = kd*(F-Fmin)/(Fmax-F) with modifications assuming kd = 224 nM, i.e. by the formulas: • [Ca^++]i = kd*(R-Rmin)*Sf2/(Rmax-R)*Sb2 • R = [D(W1)-AutoF1]/[D(W2)-AutoF2] • D(Wi) : Determined value at wavelength for excitation W1 • D(W2) : Determined value at wavelength for excitation W2 • AutoF1 : self-fluoroscence at W1 • AutoF2 self-fluoroscence at W2 • Rmin : R in zero Ca^++ = Fmin (W1)/Fmin (W2) • Rmax : R in Ca^++-saturated concentration = Fmax (W1)/Fmax (W2) • Sf2 : strength of fluoroscence by free Ca^++ at W2 • Sb2 : strength of fluoroscence by bound Ca^++ at W2 The experiments were carried out as follows: PAF antagonists, the compounds [II], [IV] and [Vllla], were added to the solution in the cuvette. Incubation was conducted for 5 minutes and then endothelin (4 x 10-^9 M) was added to observe changes of strength of fluoroscence.

Acute toxicities = settings: rat, in vivo
Method: PAF antagonists were administered to male Wistar rats (4-6 weeks old) to observe the acute toxicities.

M-SHRsp = experiment: Protective action on ischemic cerebral damage in M-SHRsp (bilateral carotid occlusion and reperfusion); type: in vivo, rat; settings: 24 hour reperfusion
Method: Male malignant spontaneously hypertensive rats (M-SHRsp), 8 weeks old, were used. The carotid artery was occluded bilaterally for 1 hour under conscious condition followed by reperfusion for 24 hours. The drug was orally given 1 hour prior to the occlusion of the artery. The survival rate of rats was estimated during the 24 hour reperfusion.

endothelin [3] = experiment: Protective effects against endothelin-induced death in rats; type: in vivo; settings: rat, survival 1 h after endothelin
Method: as §1, §2, §3, §4

endothelin [4] = experiment: Protective effects against arrhythmia-inducing activity of endothelin in rats (electrocardiogram); type: in vivo, rat; settings: anesthetized rats; for PVB counts (15 min.): premature ventricular beats; for VF incidence: ventricular fibrillation; for VT incidence: ventricular tachycardia
Method: Male SD-Jcl rats (9 weeks old) were anesthetized with pentobarbital (50 mg/kg, intraperitoneal injection), and electrocardiogram (Lead II) was monitored on a polygraph. A drug was dissolved in physiological saline and given via the tail vein in a volume of 1 ml/kg. Five minutes later, endothelin (5 nmol/kg) was intravenously administered. In the case of oral administration, a drug was given in 10 ml/kg of 5% gum arabic suspension one hour before the administration of endothelin.

[5] = system: Male Spraque Dawley (Jcl) rats; experiment: Effect on acute renal failure in rats (bilateral renal artery occlusion and reperfusion); type: in vivo, rat; settings: oral dose of 30 mg/kg 1 hour prior to occlusion; 45 min occlusion, 20 hours reperfusion
Method: Male Spraque Dawley (Jcl) rats, 5 weeks old, were anesthetized with sodium pentobarbital (50 mg/kg, i.p.) and the renal artery was occluded bilaterally for 45 minutes followed by reperfusion for 20 hours. The blood was collected from the abdominal aorta under anesthesia for measurement of blood urea nitrogen (BUN).

[6] = 100 mg/kg p.o. 1 h before endothelin 5 nmol/kg i.v.
[7] = sustained increase of cytosolic calcium
[8] = transient increase of cytosolic calcium
[9] = 30 mg/kg p.o. 1 h before endothelin 5 nmol/kg i.v.
[10] = 30 mg/kg i.v. 5 min before endothelin 5 nmol/kg i.v.
[11] = 3 mg/kg i.v. 5 min before endothelin 5 nmol/kg i.v.
[12] = 1 mg/kg i.v. 5 min before endothelin 5 nmol/kg i.v.

COc1cc2c(cc1OC)CCCC(C(=O)N1CCN(C(=O)c3cc(OC)c(OC)c(OC)c3)CC1)=C2 [Compd [IV], 1-(2,3-dimethoxy-6,7-dihydro-5H-benzocycloheptenyl-8-carbonyl)-4-(3,4,5-trimethoxybenzoyl)piperazine]
albumin (glomerulonephritic rats): 17 ± 11 mg/100 g/24 hr | total protein (glomerulonephritic rats): 43 ± 16 mg/100 g/24 hr | Protective effect to death Survival Rate (%) (endothelin [1]; [6]): 100** % | Protective effect to death Survival Total (endothelin [1]; [6]): 15/15 | inhibition at 0.4 µM [2, 7]: 52.6% | inhibition at 0.4 µM [2, 8]: 76.2% | LD50 (Acute toxicities; po): > 1000 mg/kg | Survival rate (24 hr) (M-SHRsp; 1 mg/kg p.o. 1 hour prior to occlusion): 2/7 | Survival rate (24 hr) (M-SHRsp; 10 mg/kg p.o. 1 hour prior to occlusion): 6/7* | Survival rate (24 hr) (M-SHRsp; 10 mg/kg p.o. 1 hour prior to occlusion, listed as compound [IV]): 6 out of 7 | Survival rate (24 hr) (M-SHRsp; 100 mg/kg p.o. 1 hour prior to occlusion): 4/4* | Survival rate (24 hr) (M-SHRsp; 100 mg/kg p.o. 1 hour prior to occlusion, listed as compound [IV]): all out of 4

CCC[n+]1cc(Br)cc(C(=O)N(CCC(=O)NCCOC(=O)N2CCc3ccccc3C2)c2ccccc2)c1 [[VIIIa]]
inhibition at 0.4 µM [2, 7]: 100% | inhibition at 0.04 µM [2, 7]: 72.1% | inhibition at 4 µM [2, 8]: 78.2% | inhibition at 0.4 µM [2, 8]: 64.2%

Cc1nnc2n1-c1sc(CCC(=O)N3CCOCC3)cc1C(c1ccccc1Cl)=NC2 [Compd [IX], reference compound]
Protective effect to death Survival Rate (%) (endothelin [3]; [9]): 40** % | Protective effect to death Survival Total (endothelin [3]; [9]): 6/15 | Protective effect to death Survival Rate (%) (endothelin [1]; [9]): 53** % | Protective effect to death Survival Total (endothelin [1]; [9]): 8/15 | PVB counts (15 min.) (endothelin [4]; [9]): 12±5 | VF incidence (endothelin [4]; [9]): 4/6** | VT incidence (endothelin [4]; [9]): 4/6**

CCC[n+]1cc(Br)cc(C(=O)N(CCC(=O)NCCOC(=O)N2CCc3ccccc3C2)c2ccccc2)c1 [Compd [VIIIb]]
Blood urea nitrogen (BUN) [5]: 88 ± 2 mg/dL

CCCCCCCCCCCCCCCCCCNC(=O)OCC(COP(=O)([O-])OCC[n+]1ccsc1)OC (stereo not drawn) [Compd [VI], 3-(N-n-octadenylcarbamoyloxy)-2-methoxypropyl 2-thiazolioethyl phosphate]
Protective effect to death Survival Rate (%) (endothelin [1]; [10]): 36* % | Protective effect to death Survival Total (endothelin [1]; [10]): 5/14 | LD50 (Acute toxicities; iv, male Wistar rats): > 50 mg/kg

CCCCCCCCCCCCCCCCCCNC(=O)OCC(COC(=O)N(Cc1cccc[n+]1CC)C(C)=O)OC.[Cl-] (stereo not drawn) [Compd [II], 2-[N-acetyl-N-(2-methoxy-3-octadecylcarbamoyloxypropoxycarbonyl)-aminomethyl]-1-ethylpyridinium chloride]
Protective effect to death Survival Rate (%) (endothelin [3]; [11]): 94** % | Protective effect to death Survival Total (endothelin [3]; [11]): 15/16 | Protective effect to death Survival Rate (%) (endothelin [1]; [11]): 100** % | Protective effect to death Survival Total (endothelin [1]; [11]): 10/10 | PVB counts (15 min.) (endothelin [4]; [12]): 9±8 | VF incidence (endothelin [4]; [12]): 2/9** | VT incidence (endothelin [4]; [12]): 3/9** | inhibition at 0.4 µM [2, 7]: 100% | inhibition at 0.04 µM [2, 7]: 100% | inhibition at 4 µM [2, 8]: 100% | inhibition at 0.4 µM [2, 8]: 100% | LD50 (Acute toxicities; iv, male Wistar rats): > 20 mg/kg

From patent publication EP0369810A2, “PAF antagonists as anti-hyperendothelinemia agents” (Takeda Chemical Industries, Ltd., priority 1988, dated 1990)
